For 36 molecules, Activity, CC50 and EC50 results are on record in ChEMBL document CHEMBL5120914, “An O-Benzyl Phosphonamidate Prodrug of Tenofovir for the Treatment of Hepatitis B Virus Infection” (J Med Chem, 2022).

For data set [1], the system named is Hepatitis B virus. Put plainly: Antiviral activity against Hepatitis B virus infected in human HepG2.2.15 cells assessed as inhibition of viral DNA replication at 1 uM measured after 6 days by FQ-PCR analysis relative to control. The data set is classed as functional, HepG2 2.2.15. Also noted: scale not given: the % may be the effect or the level left. The conditions noted are these: time 6 day.

Data set [2] can be described thus: Cytotoxicity against human HepG2 cells assessed as reduction in cell growth incubated for 3 days by MTT assay. The conditions noted are these: time 3 day. The class given is toxicity, cell-based.
Data set [3] concerns Hepatitis B virus. Put plainly: Antiviral activity against Hepatitis B virus infected in ig dosed duck assessed as reduction in viral DNA replication in liver administered once daily for first 10 days followed by increase in dose administered for another 18 days. The data set is classed as functional, organism-based. To be noted: dose 10-40 mg/kg, time 28.0 day, DDE = dose-dependent effect.

Data set [4] relates to Hepatitis B virus. Put plainly: Antiviral activity against Hepatitis B virus infected in human HepG2.2.15 cells assessed as inhibition of viral DNA replication at 20 uM measured after 6 days by FQ-PCR analysis relative to control. The conditions noted are these: time 6 day. Also noted: scale not given: the % may be the effect or the level left. The class given is functional, HepG2 2.2.15.

Data set [5] relates to Hepatitis B virus. Nature of the data set: Antiviral activity against Hepatitis B virus infected in human HepG2.2.15 cells assessed as inhibition of viral DNA replication measured for 9 days by FQ-PCR analysis. To be noted: HepG2 2.2.15, 216 h. The class given is functional, organism-based.
The subject of the next data set is HepG2. Nature of the data set: Cytotoxicity against human HepG2 cells assessed as reduction in cell growth upto 500 uM incubated for 3 days by MTT assay. The conditions noted are these: hepg2, 72 h, time 3 day. The class given is toxicity, cell-based. On the technique in general: Tetrazolium dyes change colour on reduction, which living cells bring about.

The CC50 is the concentration giving 50% cytotoxicity. `CC(C)OC(=O)[C@H](C)NP(=O)(CO[C@H](C)Cn1cnc2c(N)ncnc21)OCc1cccc(Br)c1` (stereo not given in full): in the data set on Hepatitis B virus [1], the Activity is reported as 31.94%. For the same molecule, the CC50 at 72 h in data set [2] is over 500 µM.

For `Cc1ccccc1COP(=O)(CO[C@H](C)Cn1cnc2c(N)ncnc21)N[C@@H](C)C(=O)OC(C)C` (stereo in doubt; 1a), the Activity result in the data set with Hepatitis B virus [3] was “Dde”.

Take `CC(C)OC(=O)[C@H](C)NP(=O)(CO[C@H](C)Cn1cnc2c(N)ncnc21)OCc1cccc(C(F)(F)F)c1` (stereo not given in full): in the data set with Hepatitis B virus [1], the Activity came to 35.34%. The CC50 at 72 h in data set [2] is over 500 µM.

Consider `CCCOC(=O)[C@H](C)NP(=O)(CO[C@H](C)Cn1cnc2c(N)ncnc21)OCc1ccccc1C` (stereo not given in full), for which, in the data set with Hepatitis B virus [1], the Activity is listed as 14.35%. Also, the CC50 at 72 h in data set [2] is over 500 µM.

Consider `Nc1ccn([C@@H]2CS[C@H](CO)O2)c(=O)n1` [LAMIVUDINE], for which the CC50 at 72 h in data set [2] is over 500 µM. In the data set with Hepatitis B virus [4], the Activity turned out to be 77.32%.

Broadly, the EC50 is the midpoint of the concentration-response curve. `CC(C)OC(=O)[C@H](C)NP(=O)(CO[C@H](C)Cn1cnc2c(N)ncnc21)OCc1ccccc1F` (stereo not given in full): in the data set on Hepatitis B virus [1], the Activity is given as 66.36%. The CC50 at 72 h in data set [2] was over 500 µM. For the same molecule, the EC50 in the data set on Hepatitis B virus [5] worked out at 0.029 µM.

Take `CC(C)OC(=O)[C@H](C)NP(=O)(CO[C@H](C)Cn1cnc2c(N)ncnc21)OCc1ccccc1Br` (stereo not given in full): the Activity in the data set on Hepatitis B virus [1] is recorded as 80.75%. Further, in data set [2], the CC50 at 72 h worked out at 490 µM. Besides, the EC50 in the data set on Hepatitis B virus [5] is 0.052 µM.

As to `Cc1ccc(COP(=O)(CO[C@H](C)Cn2cnc3c(N)ncnc32)N[C@@H](C)C(=O)OC(C)C)cc1` (stereo not given in full), in the data set with Hepatitis B virus [1], the Activity turned out to be 65.32%. For the same molecule, the CC50 at 72 h in data set [2] was over 500 µM. Besides, the EC50 with Hepatitis B virus [5] came out at 0.186 µM.

Consider `Cc1ccccc1COP(=O)(CO[C@H](C)Cn1cnc2c(N)ncnc21)N[C@@H](C)C(=O)OC(C)C` (stereo in doubt; 1a-1), for which the Activity was 62.5% with Hepatitis B virus [1] (144 h, 1 µM) and “Non-Toxic” in the data set with HepG2.

For `Cc1ccccc1COP(=O)(CO[C@H](C)Cn1cnc2c(N)ncnc21)N[C@@H](C)C(=O)OC1CCCCC1` (stereo not given in full), in the data set on Hepatitis B virus [1], the Activity is on record as 21.46%. Further, in data set [2], the CC50 at 72 h was over 500 µM.

Turning to `Cc1ccccc1COP(=O)(CO[C@H](C)Cn1cnc2c(N)ncnc21)N[C@@H](C)C(=O)OC(C)C` (stereo in doubt; 1a-2), the Activity with Hepatitis B virus [1] (144 h, 1 µM) is listed as 85.4%.

For the molecule `CC(C)OC(=O)[C@H](C)NP(=O)(CO[C@H](C)Cn1cnc2c(N)ncnc21)OCc1cccc(F)c1` (stereo not given in full), in the data set with Hepatitis B virus [1], the Activity turned out to be 68.11%. Moreover, the CC50 at 72 h in data set [2] was over 500 µM. Moreover, the EC50 in the data set with Hepatitis B virus [5] was determined as 0.027 µM.

In the case of `Cc1cccc(COP(=O)(CO[C@H](C)Cn2cnc3c(N)ncnc32)N[C@@H](C)C(=O)OC(C)C)c1` (stereo not given in full), the Activity in the data set on Hepatitis B virus [1] is 69.34%. Also, the half-maximal cytotoxic concentration (CC50) at 72 h in data set [2] is over 500 µM. Besides, the EC50 in the data set with Hepatitis B virus [5] is 0.181 µM.

With `CC(C)OC(=O)[C@H](C)NP(=O)(CO[C@H](C)Cn1cnc2c(N)ncnc21)OCc1ccc(Cl)cc1` (stereo not given in full), the Activity in the data set with Hepatitis B virus [1] is on record as 67.85%. Also, the CC50 at 72 h in data set [2] was over 500 µM. Further, the EC50 in the data set on Hepatitis B virus [5] is 0.145 µM.

As for `COC(=O)[C@H](C)NP(=O)(CO[C@H](C)Cn1cnc2c(N)ncnc21)OCc1ccccc1C` (stereo not given in full), the Activity in the data set with Hepatitis B virus [1] is 65.23%. Besides, in data set [2], the CC50 at 72 h was over 500 µM. For the same molecule, the EC50 in the data set on Hepatitis B virus [5] worked out at 0.618 µM.

Turning to `CC(C)OC(=O)[C@H](C)NP(=O)(CO[C@H](C)Cn1cnc2c(N)ncnc21)OCc1ccc([N+](=O)[O-])cc1` (stereo not given in full), the Activity with Hepatitis B virus [1] is 22.15%. For the same molecule, the 50% cytotoxic concentration (CC50) at 72 h in data set [2] was over 500 µM.

Turning to `CC(C)OC(=O)[C@H](C)NP(=O)(CO[C@H](C)Cn1cnc2c(N)ncnc21)OCc1ccccc1` (stereo not given in full), in the data set on Hepatitis B virus [1], the Activity came out at 47.14%. Further, in data set [2], the CC50 at 72 h was over 500 µM.

Consider `COc1ccc(COP(=O)(CO[C@H](C)Cn2cnc3c(N)ncnc32)N[C@@H](C)C(=O)OC(C)C)cc1` (stereo not given in full), for which, in the data set with Hepatitis B virus [1], the Activity is given as 41.64%. Besides, the CC50 at 72 h in data set [2] was over 500 µM.

For the molecule `CCOC(=O)[C@H](C)NP(=O)(CO[C@H](C)Cn1cnc2c(N)ncnc21)OCc1ccccc1C` (stereo not given in full), the Activity with Hepatitis B virus [1] is on record as 41.27%. The CC50 at 72 h in data set [2] was over 500 µM.

Turning to `Cc1ccccc1COP(=O)(CO[C@H](C)Cn1cnc2c(N)ncnc21)N[C@@H](Cc1ccccc1)C(=O)OC(C)C` (stereo not given in full), in the data set on Hepatitis B virus [1], the Activity is listed as 63.8%. Moreover, in data set [2], the CC50 at 72 h is over 500 µM. For the same molecule, the EC50 with Hepatitis B virus [5] came to 0.49 µM.

Turning to `CC(C)OC(=O)[C@H](C)NP(=O)(CO[C@H](C)Cn1cnc2c(N)ncnc21)OCc1cccc([N+](=O)[O-])c1` (stereo not given in full), in the data set with Hepatitis B virus [1], the Activity turned out to be 34.63%. Further, the CC50 at 72 h in data set [2] was over 500 µM.

`COc1ccccc1COP(=O)(CO[C@H](C)Cn1cnc2c(N)ncnc21)N[C@@H](C)C(=O)OC(C)C` (stereo not given in full): the Activity in the data set with Hepatitis B virus [1] came out at 53.33%. In addition, the CC50 at 72 h in data set [2] was over 500 µM.

In the case of `Cc1ccccc1COP(=O)(CO[C@H](C)Cn1cnc2c(N)ncnc21)N[C@@H](C)C(=O)OC1CCCC1` (stereo not given in full), in the data set on Hepatitis B virus [1], the Activity was determined as 41.01%. Besides, the CC50 at 72 h in data set [2] is over 500 µM.

With `CC(C)OC(=O)[C@H](C)NP(=O)(CO[C@H](C)Cn1cnc2c(N)ncnc21)OCc1ccc(Br)cc1` (stereo not given in full), in data set [2], the CC50 at 72 h is over 500 µM.

Regarding `COC(=O)C[C@H](NP(=O)(CO[C@H](C)Cn1cnc2c(N)ncnc21)OCc1ccccc1C)C(=O)OC` (stereo not given in full), the Activity in the data set with Hepatitis B virus [1] was found to be 69.01%. The CC50 at 72 h in data set [2] was over 500 µM. Further, in the data set with Hepatitis B virus [5], the EC50 is 0.827 µM.

On to `CC(C)OC(=O)[C@H](C)NP(=O)(CO[C@H](C)Cn1cnc2c(N)ncnc21)OCc1ccc(C(F)(F)F)cc1` (stereo not given in full), for which the Activity in the data set with Hepatitis B virus [1] stood at 63.45%. Further, the CC50 at 72 h in data set [2] is over 500 µM. Besides, the EC50 in the data set with Hepatitis B virus [5] stood at 0.147 µM.

Regarding `Cc1ccccc1COP(=O)(CO[C@H](C)Cn1cnc2c(N)ncnc21)N[C@@H](C)C(=O)OCC(C)(C)C` (stereo not given in full), the Activity in the data set on Hepatitis B virus [1] was 35.22%. In addition, the CC50 at 72 h in data set [2] was over 500 µM.

Regarding `CC(C)OC(=O)[C@H](C)NP(=O)(CO[C@H](C)Cn1cnc2c(N)ncnc21)OCc1ccccc1[N+](=O)[O-]` (stereo not given in full), the Activity in the data set with Hepatitis B virus [1] is 79.74%. The CC50 at 72 h in data set [2] was over 500 µM. Besides, in the data set on Hepatitis B virus [5], the EC50 was 0.078 µM.

On to `Cc1ccccc1COP(=O)(CO[C@H](C)Cn1cnc2c(N)ncnc21)NCC(=O)OC(C)C` (stereo not given in full), for which the CC50 at 72 h in data set [2] is over 500 µM.

Take `CC(C)OC(=O)[C@H](C)NP(=O)(CO[C@H](C)Cn1cnc2c(N)ncnc21)OCc1ccccc1C(F)(F)F` (stereo not given in full): in the data set on Hepatitis B virus [1], the Activity is reported as 46.76%. In addition, the CC50 at 72 h in data set [2] was over 500 µM.

Take `CCCCOC(=O)[C@H](C)NP(=O)(CO[C@H](C)Cn1cnc2c(N)ncnc21)OCc1ccccc1C` (stereo not given in full): the Activity with Hepatitis B virus [1] was determined as 22.62%. The CC50 at 72 h in data set [2] is over 500 µM.

For the molecule `CC(C)OC(=O)[C@H](C)NP(=O)(CO[C@H](C)Cn1cnc2c(N)ncnc21)OCc1ccc(F)cc1` (stereo not given in full), the Activity in the data set on Hepatitis B virus [1] was found to be 43.65%. For the same molecule, the CC50 at 72 h in data set [2] was over 500 µM.

Regarding `COc1cccc(COP(=O)(CO[C@H](C)Cn2cnc3c(N)ncnc32)N[C@@H](C)C(=O)OC(C)C)c1` (stereo not given in full), the Activity with Hepatitis B virus [1] turned out to be 46.33%. For the same molecule, the CC50 at 72 h in data set [2] was over 500 µM.

`CC(C)OC(=O)[C@H](C)NP(=O)(CO[C@H](C)Cn1cnc2c(N)ncnc21)OCc1cccc(Cl)c1` (stereo not given in full): the Activity with Hepatitis B virus [1] was determined as 73.95%. Besides, the CC50 at 72 h in data set [2] is over 500 µM. Moreover, the EC50 in the data set with Hepatitis B virus [5] was 0.047 µM.

For `Cc1ccccc1COP(=O)(CO[C@H](C)Cn1cnc2c(N)ncnc21)N[C@@H](C)C(=O)OCC(C)C` (stereo not given in full), the Activity in the data set with Hepatitis B virus [1] turned out to be 25.78%. Moreover, in data set [2], the CC50 at 72 h is over 500 µM.

As to `CC(C)OC(=O)[C@H](C)NP(=O)(CO[C@H](C)Cn1cnc2c(N)ncnc21)OCc1ccccc1Cl` (stereo not given in full), in the data set with Hepatitis B virus [1], the Activity was determined as 42.6%. In addition, in data set [2], the CC50 at 72 h was over 500 µM.
